Test results taken from patent US5605703A, “Liposomes encapsulating doxorubicin” (priority 1993, dated 1997).
Entries after “also recorded” stand apart in the source; their conditions may differ.

Test system: not listed separately
Assay: Survival of healthy BALB/C rats after i.v. administration
Details: rat, in vivo, iv, 16 mg/kg, during the second week
Description: (§1) As in Example 1, VET liposomes of composition PL:PG:CHOL:DXR (50:50:50:15) and chroman 6 (7.5 mg) were prepared.
Inoculation intravenously. Healthy BALB/C rats were treated intravenously with the preparation of L-DXR described and the survival curves compared (FIG. 5) with the administration of free drug of the same dose, 16 mg/kg. In the experiment there was incorporated as a control a preparation of liposomes without drug, of identical characteristics and at the same lipidic concentration which would correspond to the liposomes with DXR.

SMILES | mortality [%]
COc1cccc2c1C(=O)c1c(O)c3c(c(O)c1C2=O)C[C@@](O)(C(=O)CO)C[C@@H]3O[C@H]1C[C@H](N)[C@H](O)[C@H](C)O1 [F-DXR] | 100

Test system: not listed separately
Assay: Survival of healthy BALB/C rats after i.p. administration
Details: rat, in vivo, ip, 18 mg/kg, during the second week
Description: as §1
Inoculation by intraperitoneal route. Healthy BALB/C rats were treated intraperitoneally with said preparation, and the survival curves compared (FIG. 4) with the administration of free drug at the same dose, 18 mg/kg. In the experiment there was incorporated as a control a preparation of liposomes without drug, of identical characteristics and at the same lipidic concentration which would correspond to the liposomes with DXR.

SMILES | mortality [%]
COc1cccc2c1C(=O)c1c(O)c3c(c(O)c1C2=O)C[C@@](O)(C(=O)CO)C[C@@H]3O[C@H]1C[C@H](N)[C@H](O)[C@H](C)O1 [F-DXR] | 100

Test system: rat liver microsomes
Assay: not given
Type: in vitro ADME, Sprague-Dawley male rat
Details: not given

SMILES | metabolite detected
CC1(C)C=Cc2cc(O)c(OCC(F)(F)F)cc2O1 [compound 4] | detection as a metabolite in the incubations with NADPH

Test system: lipid peroxidation in rat liver microsomes (Fe-ascorbate)
Assay: Inhibition of Fe-ascorbate stimulated (chemical) lipid peroxidation in rat liver microsomes, TBARS test
Type: biochemical, Sprague-Dawley male rat
Details: Fe-ascorbate
Description: (§2) Incubations. Suspension of Sprague-Dawley male rat liver microsomes in Krebs-Ringer (KRP) phosphates buffer, were prepared in accordance with the method of Fraga et al.: Free Radical Biol. Med. (1988) 4, 155-161. For the experiences of lipidic peroxidation induced enzymatically, microsomal protein (2 mg) in 1 ml of KRP buffer was incubated for one hour at 37° C. in the presence of 0.1 mM NADPH and 2 μl of DMSO containing the compound to be evaluated at the appropriate concentration. In the experiments where the incubations were prolonged up to three hours, every hour 0.1 ml of NADPH 2 mM was added to the incubation medium. For the experiments of lipid peroxidation induced chemically, 2 mg. of microsomal protein in 1 ml of KRP buffer were incubated for 30 min. at 37° C. in the presence of FeSO4 50/μM, ascorbic acid 0.5 mM and 2 μl of DMSO containing the compound to be evaluated at the appropriate concentration. In all cases, the incubations were arrested by addition of 0.2 ml of BHT at 4%.
(§3) TBARS test. […]. (1988) 4, 155-161 (herein incorporated by reference). Briefly, 0.5 ml of dodecyl sodium sulphate at 3% was added to proportions of 0.5 ml of the microsomal incubations. After mixing them, 2 ml of HC1 0.1 N, 0.3 ml of phosphotungstic acid and 1 ml of 2-thiobarbituric acid were added. The mixture was kept 30 min. at 100° C., and the TBARS were extracted with 3 ml of 1-butanol. After centrifugation, the fluorescence of the butanol phase was determined exciting at 515 nm and reading at 555 nm. The values obtained were expressed as nanomoles of TBARS (malondialdehyde equivalents). The standards of malondialdehyde were prepared from 1,1,3,3-tetramethoxypropane. The experiments were performed in triplicate. The values of […] were determined by representation of the percentage of inhibition vs. log [I], using at least five different concentrations. The values of the percentages of inhibition were referred to the determination carried out in presence of DMSO (2 μl).
(§4) In Table I the results of the inhibition of the lipidic peroxidation shown by several 2.2-dimethylchromans and chromans, fluorated or not, in incubations of rat liver microsomes induced by NADPH or stimulated by Fe-ascorbate, are shown, expressed as values of […] for the inhibition of the production of TBARS.

SMILES | inhibiting activity compared with another compound, Fe-ascorbate
COc1cc2c(cc1O)CCC(C)(C)O2 [compound 6] | superior to that of the BHT; also recorded: an order of magnitude greater than that of the compound 7
CC1(C)CCc2cc(O)c(OCC(F)(F)F)cc2O1 [compound 9] | slightly inferior to that shown by hydroxychroman 6

Same assay, conditions: Fe-ascorbate vs. NADPH

SMILES | effect with Fe-ascorbate compared with the tests depending on NADPH
COc1cc2c(cc1O)CCC(C)(C)O2 [compound 6] | six times smaller
Cc1cc(C(C)(C)C)c(O)c(C(C)(C)C)c1 [compound 10, reference compound] | A similar relation
COc1cc2c(cc1O)OC(C)(C)CC2 [compound 7] | six times smaller
COc1cc2c(cc1O)C=CC(C)(C)O2 [compound 2] | six times smaller

Same assay, conditions: at a 0.5 mM concentration

SMILES | percentage of inhibition of TBARS production, Fe-ascorbate [%]
COc1cc2c(cc1OC)OC(C)(C)C=C2 [compound 1] | 35
COc1cc2c(cc1OC)OC(C)(C)CC2 [compound 5] | 17
COc1cc2c(cc1OCC(F)(F)F)OC(C)(C)CC2 [compound 8] | 5

Same assay, conditions: rat liver microsomes, Fe-ascorbate

SMILES | inhibition of lipid peroxidation, Fe-ascorbate (in words)
COc1cc2c(cc1O)CCC(C)(C)O2 [compound 6] | potent inhibiting effect; also recorded: the greatest inhibiting power
COc1cc2c(cc1OC)OC(C)(C)C=C2 [compound 1] | inactive
COc1cc2c(cc1OC)OC(C)(C)CC2 [compound 5] | inactive
COc1cc2c(cc1O)OC(C)(C)CC2 [compound 7] | potent inhibiting effect
COc1cc2c(cc1O)C=CC(C)(C)O2 [compound 2] | potent inhibiting effect
COc1cc2c(cc1OCC(F)(F)F)OC(C)(C)CC2 [compound 8] | does not present inhibiting activity per se

Same assay, conditions: rat liver microsomes, FeSO4, ascorbic acid 0.5 mM, 30 min. at 37° C.; read-out: IC50 TBARS production, Fe-ascorbate

IC50 [µM] | SMILES
1.9 | COc1cc2c(cc1O)CCC(C)(C)O2 [compound 6]
5.3 | CC1(C)CCc2cc(O)c(OCC(F)(F)F)cc2O1 [compound 9]
19 | COc1cc2c(cc1O)OC(C)(C)CC2 [compound 7]

The next lines start with the compound.

SMILES | IC50 [µM]
Cc1cc(C(C)(C)C)c(O)c(C(C)(C)C)c1 [compound 10, reference compound] | 2.7
COc1cc2c(cc1O)C=CC(C)(C)O2 [compound 2] | 3.8
CC1(C)C=Cc2cc(O)c(OCC(F)(F)F)cc2O1 [compound 4] | 6

Test system: animals
Assay: not given
Details: literature; cited from earlier work

SMILES | toxicity in animals (in words)
COc1cccc2c1C(=O)c1c(O)c3c(c(O)c1C2=O)C[C@@](O)(C(=O)CO)C[C@@H]3O[C@H]1C[C@H](N)[C@H](O)[C@H](C)O1 [F-DXR] | cardiomyopathy

Test system: lipid peroxidation in rat liver microsomes (NADPH)
Assay: Persistence of the inhibition of lipid peroxidation over three hours in rat liver microsomes with NADPH
Type: biochemical, Sprague-Dawley male rat
Details: compounds 5, 6, 8, 9 at 15, 1, 6, 5 μM
Description: FIG. 1 illustrates the formulas of the chromenes (1-4), chromans (5-9) and compound of reference, BHT, (10) studied as inhibitors of the lipidic peroxidation. […] The values shown are the average +/-SD of sextuplicate tieterminations that were performed. The difference between consecutive hours are marked by asterisks: * P<0.001, ** P<0.005.
as §2
TBARS test. When the incubations were completed, the lipid peroxidation was evaluated by means of the production of substances which react with thiobarbituric acid (TBARS) as Fraga et al described.: Free Radical Biol. Meal. (1988) 4, 155-161 (herein incorporated by reference). Briefly, 0.5 ml of dodecyl sodium sulphate at 3% was added to proportions of 0.5 ml of the microsomal incubations. […] After centrifugation, the fluorescence of the butanol phase was determined exciting at 515 nm and reading at 555 nm. The values obtained were expressed as nanomoles of TBARS (malondialdehyde equivalents). […] The values of […] were determined by representation of the percentage of inhibition vs. log [I], using at least five different concentrations. […]

SMILES | persistence of the inhibiting activity
CC1(C)CCc2cc(O)c(OCC(F)(F)F)cc2O1 [compound 9] | decreases during the second and the third hour of incubation; also recorded: less pronounced than that obtained for the compound 6; also recorded: more persistent intrinsic activity
COc1cc2c(cc1OC)OC(C)(C)CC2 [compound 5] | remains constant; also recorded: anti-oxidant efficiency more metabolic-dependent
COc1cc2c(cc1OCC(F)(F)F)OC(C)(C)CC2 [compound 8] | slightly higher during the second hour of incubation; also recorded: significant drop in the inhibiting activity during the third hour; also recorded: not significant when it is compared with the percentage of inhibition determined for the first hour of incubation (P>0.005); also recorded: anti-oxidant efficiency more metabolic-dependent

Test system: not listed separately
Assay: Encapsulation of DXR in liposomes (Sephadex G-50M)
Type: physicochemical
Details: VET liposomes PL:PG:CHOL:DXR (50:50:50:15), anti-oxidant varied
Description: A chloroform solution was prepared containing the selected lipids (table II) and 7.5 mg. of the chroman 6 in a round-bottomed flask. Afterward proceeding to the elimination of the organic solvent by means of roto-evaporation, additionally the traces of solvent were eliminated by passage of N2 or by lyophilization. The lipidic film thus obtained was hydrated, with 3 ml of NaCl solution at 0.9% containing DXR, by agitation in a vibromixer at intervals of 30 sec., followed by resting in a bath maintained at 60° C. for the same amount of time and an effective agitation up to 10 min. Thus a liposomal dispersion was obtained containing preferably multilamelar vesicles (MLVs). The liposomal solution was sonicated by ultrasonic irradiation by means of a titanium probe until a change in the turbidity was observed. The protocol of sonication was carried out in relays of 2 min. of sonication and one minute resting under atmosphere of N2 in an ice water bath. In order to eliminate the particles of titanium produced during the sonication, it was centrifuged for 20 min. at 3000 rpm. The liposomal suspension thus obtained contained small unilamelar liposomes (SUVs).
Alternatively, the suspension of multilamelar liposomes obtained as described was submitted to extrusion through polycarbonate filters of 0.4 and 0.2 μm in diameter of pore subsequently, obtaining liposomes designated VET.
The determination of the percentage of encapsulation of DXR was done by chromatographic separation of a portion of the liposomal suspension, by means of Sephadex G-50M utilizing NaCl 0.9% as eluent.
Proceeding in a manner analogous to that described in EXAMPLE 2 to obtain VET liposomes utilizing a ratio by weight of PL:PG:CHOL:DXR of 50:50:50:15 and varying the anti-oxidant agent employed. The results obtained show (Table III) that no appreciable differences exist in the percentages of encapsulation when different inhibitors of the lipidic peroxidation were utilized.

% encapsulation (Table III) [%] | SMILES
87 | COc1cc2c(cc1O)CCC(C)(C)O2 [compound 6]
83 | CC1(C)CCc2cc(O)c(OCC(F)(F)F)cc2O1 [compound 9]
86 | COc1cc2c(cc1OC)OC(C)(C)CC2 [compound 5]
88 | COc1cc2c(cc1O)OC(C)(C)CC2 [compound 7]
90 | COc1cc2c(cc1OCC(F)(F)F)OC(C)(C)CC2 [compound 8]

Second part, the compound before the results:

SMILES | % encapsulation (Table III) [%]
COc1cc2c(cc1OC)OC(C)(C)C=C2 [compound 1] | 89
COc1cc2c(cc1O)C=CC(C)(C)O2 [compound 2] | 85
CC1(C)C=Cc2cc(O)c(OCC(F)(F)F)cc2O1 [compound 4] | 84

Test system: lipid peroxidation in rat liver microsomes (NADPH)
Assay: Inhibition of NADPH-induced (enzymatic) lipid peroxidation in rat liver microsomes, TBARS test
Type: biochemical, Sprague-Dawley male rat
Details: NADPH
Description: as §2, §3, §4

SMILES | inhibiting activity compared with another compound, NADPH
COc1cc2c(cc1O)CCC(C)(C)O2 [compound 6] | an order of magnitude greater than that of the compound 7
COc1cc2c(cc1OCC(F)(F)F)OC(C)(C)CC2 [compound 8] | nine times greater than that corresponding to chromene 3

Same assay, conditions: rat liver microsomes, 0.1 mM NADPH, one hour at 37° C.; read-out: IC50 TBARS production, NADPH

IC50 [µM] | SMILES
0.3 | COc1cc2c(cc1O)CCC(C)(C)O2 [compound 6]
3.9 | CC1(C)CCc2cc(O)c(OCC(F)(F)F)cc2O1 [compound 9]
15 | COc1cc2c(cc1OC)OC(C)(C)CC2 [compound 5]
3.4 | COc1cc2c(cc1O)OC(C)(C)CC2 [compound 7]
6 | COc1cc2c(cc1OCC(F)(F)F)OC(C)(C)CC2 [compound 8]

More lines, now with the values behind:

SMILES | IC50 [µM]
COc1cc2c(cc1OC)OC(C)(C)C=C2 [compound 1] | 11.4
Cc1cc(C(C)(C)C)c(O)c(C(C)(C)C)c1 [compound 10, reference compound] | 0.8
COc1cc2c(cc1O)C=CC(C)(C)O2 [compound 2] | 1.4
CC1(C)C=Cc2cc(O)c(OCC(F)(F)F)cc2O1 [compound 4] | 3.7

Same assay, conditions: rat liver microsomes, NADPH

SMILES | inhibition of lipid peroxidation, NADPH (in words)
CC1(C)CCc2cc(O)c(OCC(F)(F)F)cc2O1 [compound 9] | the highest inhibiting activity of the chroman fluorates tested
CC1(C)C=Cc2cc(O)c(OCC(F)(F)F)cc2O1 [compound 4] | the greatest inhibiting activity
